Measurements from US20250368633A1, “AZEPINE FUSED RING COMPOUND AS RIPK1 INHIBITOR AND USE THEREOF” (ARTIVILA BIOPHARMA, priority 2022, published 2025).

Assays:
[1] = molecular target: T1, RIPK1 kinase (Homo sapiens, UniProt Q13546); assay: In vitro RIPK1 kinase activity assay (ADP-Glo), inhibition by compounds at 1 μM; assay type: biochemical; settings: compound 1 μM; ATP 10 μM; MBP substrate 100 μg/mL; read-out: RIPK1 kinase activity inhibition rate range
T1 construct: purchased Promega VA7593
T1 sequence (Q13546 1-671): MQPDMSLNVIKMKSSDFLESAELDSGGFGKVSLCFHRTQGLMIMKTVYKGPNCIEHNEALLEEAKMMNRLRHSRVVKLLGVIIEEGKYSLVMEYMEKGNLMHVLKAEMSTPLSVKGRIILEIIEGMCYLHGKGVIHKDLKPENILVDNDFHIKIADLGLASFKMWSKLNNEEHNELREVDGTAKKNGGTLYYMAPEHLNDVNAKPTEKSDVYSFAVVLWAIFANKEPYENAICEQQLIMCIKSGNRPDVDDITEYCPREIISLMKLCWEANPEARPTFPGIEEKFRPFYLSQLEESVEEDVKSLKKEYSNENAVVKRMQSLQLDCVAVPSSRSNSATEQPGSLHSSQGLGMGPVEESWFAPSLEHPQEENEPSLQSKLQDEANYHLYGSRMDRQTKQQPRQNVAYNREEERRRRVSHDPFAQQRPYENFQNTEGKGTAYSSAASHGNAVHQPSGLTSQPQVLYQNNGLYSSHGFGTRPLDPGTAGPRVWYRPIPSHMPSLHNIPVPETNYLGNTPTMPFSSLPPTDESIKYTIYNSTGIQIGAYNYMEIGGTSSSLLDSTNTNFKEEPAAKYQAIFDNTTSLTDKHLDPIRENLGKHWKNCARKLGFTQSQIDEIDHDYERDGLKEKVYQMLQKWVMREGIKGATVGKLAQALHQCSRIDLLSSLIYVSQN
Summary of the method: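 Compound and RIPK1 were preincubated 15 min at room temperature, then reacted 1 h with 10 μM ATP and 100 μg/mL MBP substrate in kinase buffer D. ADP formed was measured by ADP-Glo luminescence and converted to percent inhibition of kinase activity.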

[2] = test system: U937 cells; assay: Inhibition rate of compound (1 μM) on necroptosis of U937 cells (TSZ-induced, CellTiter-Glo); assay type: cell-based; settings: TSZ (hTNF-α, SM-164, Z-VAD-FMK) 20 hours
Summary of the method: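 U937 cells were pretreated 15 min with compound, then necroptosis was triggered with TSZ (Z-VAD-FMK, hTNF-α, SM-164) for 20 h at 37° C. Viability was read as ATP by CellTiter-Glo luminescence, and inhibition (%) was taken relative to no-TSZ and TSZ-only wells.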

## CN1C(=O)[C@@H](NC(=O)C(=O)NCc2cccc(F)c2)COc2ccc(C#CCCO)cc21 [Example 39, (S)—N^1-(3-fluorobenzyl)-N^2-(7-(4-hydroxybut-1-yn-1-yl)-5-methyl-4-oxo-2,3,4,5-tetrahydrobenzo[b][1,4]oxazepin-3-yl)oxalamide]
[1]
  inhibition at 1 µM: ≥ 75%
[2]
  Inhibition rate range of compounds (1 μM) on U937 cell necroptosis: A (A: ≥90%)

## CN1C(=O)[C@@H](NC(=O)C(=O)NCc2ccc(F)cc2)COc2ccc(C#CCCO)cc21 [Example 40, (S)—N^1-(4-fluorobenzyl)-N^2-(7-(4-hydroxybut-1-yn-1-yl)-5-methyl-4-oxo-2,3,4,5-tetrahydrobenzo[b][1,4]oxazepin-3-yl)oxalamide]
[1]
  inhibition at 1 µM: ≥ 75%
[2]
  Inhibition rate range of compounds (1 μM) on U937 cell necroptosis: A (A: ≥90%)

## CN1C(=O)[C@@H](NC(=O)C(=O)NCCc2cccc(F)c2)COc2ccc(C#CC(C)(C)O)cc21 [Example 42, (S)—N^1-(3-fluorophenethyl)-N^2-(7-(3-hydroxy-3-methylbut-1-yn-1-yl)-5-methyl-4-oxo-2,3,4,5-tetrahydrobenzo[b][1,4]oxazepin-3-yl)oxalamide]
[1]
  inhibition at 1 µM: ≥ 75%
[2]
  Inhibition rate range of compounds (1 μM) on U937 cell necroptosis: A (A: ≥90%)

## CN1C(=O)[C@@H](NC(=O)C(=O)NCCc2ccccc2)COc2ccc(C#CC3(O)COC3)cc21 [Example 43, (S)—N^1-(7-((3-hydroxyoxetan-3-yl)ethynyl)-5-methyl-4-oxo-2,3,4,5-tetrahydrobenzo[b][1,4]oxazepin-3-yl)-N^2-phenethyloxalamide]
[1]
  inhibition at 1 µM: ≥ 75%
[2]
  Inhibition rate range of compounds (1 μM) on U937 cell necroptosis: A (A: ≥90%)

## CN1C(=O)[C@@H](NC(=O)C(=O)NCCc2ccccc2)COc2ccc(C#CC3(O)CCCCC3)cc21 [Example 44, (S)—N^1-(7-((1-hydroxycyclohexyl)ethynyl)-5-methyl-4-oxo-2,3,4,5-tetrahydrobenzo[b][1,4]oxazepin-3-yl)-N^2-phenethyloxalamide]
[1]
  inhibition at 1 µM: 50 to 74%
[2]
  Inhibition rate range of compounds (1 μM) on U937 cell necroptosis: A (A: ≥90%)

## C/C(C#Cc1ccc2c(c1)N(C)C(=O)[C@@H](NC(=O)C(=O)NCCc1ccccc1)CO2)=C/CO [Example 45, (S,Z)-N^1-(7-(5-hydroxy-3-methylpent-3-en-1-yn-1-yl)-5-methyl-4-oxo-2,3,4,5-tetrahydrobenzo[b][1,4]oxazepin-3-yl)-N^2-phenethyloxalamide]
[1]
  inhibition at 1 µM: ≥ 75%
[2]
  Inhibition rate range of compounds (1 μM) on U937 cell necroptosis: A (A: ≥90%)

## CN1C(=O)[C@@H](NC(=O)C(=O)NCCc2ccccc2)COc2ccc(C#CCN3CCC(O)C3)cc21 (stereo partly drawn) [Example 46, N^1-((3S)-7-(3-(3-hydroxypyrrolidin-1-yl)prop-1-yn-1-yl)-5-methyl-4-oxo-2,3,4,5-tetrahydrobenzo[b][1,4]oxazepin-3-yl)-N^2-phenethyloxalamide]
[1]
  inhibition at 1 µM: ≥ 75%
[2]
  Inhibition rate range of compounds (1 μM) on U937 cell necroptosis: A (A: ≥90%)

## CN1C(=O)[C@@H](NC(=O)C(=O)NCCc2ccccc2)COc2ccc(C#CCN3CCC(=O)CC3)cc21 [Example 47, (S)—N^1-(5-methyl-4-oxo-7-(3-(4-oxopiperidin-1-yl)prop-1-yn-1-yl)-2,3,4,5-tetrahydrobenzo[b][1,4]oxazepin-3-yl)-N^2-phenethyloxalamide]
[1]
  inhibition at 1 µM: ≥ 75%
[2]
  Inhibition rate range of compounds (1 μM) on U937 cell necroptosis: A (A: ≥90%)

## CN1C(=O)[C@@H](NC(=O)C(=O)NCCc2ccccc2)COc2ccc(C#CCN3CCOCC3)cc21 [Example 48, (S)—N^1-(5-methyl-7-(3-morpholinoprop-1-yn-1-yl)-4-oxo-2,3,4,5-tetrahydrobenzo[b][1,4]oxazepin-3-yl)-N^2-phenethyloxalamide]
[1]
  inhibition at 1 µM: 50 to 74%
[2]
  Inhibition rate range of compounds (1 μM) on U937 cell necroptosis: A (A: ≥90%)

## CN1C(=O)[C@@H](NC(=O)C(=O)NCCc2ccccc2)COc2ccc(C#CCCN)cc21 [Example 50, (S)—N^1-(7-(4-aminobut-1-yn-1-yl)-5-methyl-4-oxo-2,3,4,5-tetrahydrobenzo[b][1,4]oxazepin-3-yl)-N^2-phenethyloxalamide]
[1]
  inhibition at 1 µM: ≥ 75%
[2]
  Inhibition rate range of compounds (1 μM) on U937 cell necroptosis: A (A: ≥90%)

## CN1C(=O)[C@@H](NC(=O)C(=O)NCCc2ccccc2)COc2ccc(C#CCCNS(C)(=O)=O)cc21 [Example 51, (S)—N^1-(5-methyl-7-(4-(methylsulfonamido)but-1-yn-1-yl)-4-oxo-2,3,4,5-tetrahydrobenzo[b][1,4]oxazepin-3-yl)-N^2-phenethyloxalamide]
[1]
  inhibition at 1 µM: 25 to 49%
[2]
  Inhibition rate range of compounds (1 μM) on U937 cell necroptosis: A (A: ≥90%)

## COCC#Cc1ccc2c(c1)N(C)C(=O)[C@@H](NC(=O)C(=O)NCCc1ccccc1)CO2 [Example 52, (S)—N^1-(7-(3-methoxyprop-1-yn-1-yl)-5-methyl-4-oxo-2,3,4,5-tetrahydrobenzo[b][1,4]oxazepin-3-yl)-N^2-phenethyloxalamide]
[1]
  inhibition at 1 µM: ≥ 75%
[2]
  Inhibition rate range of compounds (1 μM) on U937 cell necroptosis: A (A: ≥90%)

## CN1C(=O)C(NC(=O)C(=O)NCCc2ccccc2)CCc2ccc(Br)cc21 (centres unmarked) [Example 61, N^1-(8-bromo-1-methyl-2-oxo-2,3,4,5-tetrahydro-1H-benzo[b]azepin-3-yl)-N^2-phenethyloxalamide]
[1]
  inhibition at 1 µM: ≥ 75%
[2]
  Inhibition rate range of compounds (1 μM) on U937 cell necroptosis: A (A: ≥90%)

## CN1C(=O)C(NC(=O)C(=O)NCCc2ccccc2)CCc2ccc(C#CC3CC3)cc21 (centres unmarked) [Example 62, N^1-(8-(cyclopropylethynyl)-1-methyl-2-oxo-2,3,4,5-tetrahydro-1H-benzo[b]azepin-3-yl)-N^2-phenethyloxalamide]
[1]
  inhibition at 1 µM: ≥ 75%
[2]
  Inhibition rate range of compounds (1 μM) on U937 cell necroptosis: A (A: ≥90%)

## CN1C(=O)C(NC(=O)C(=O)NCCc2ccccc2)CCc2ccc(C#CCCO)cc21 (centres unmarked) [Example 65, N^1-(8-(4-hydroxybut-1-yn-1-yl)-1-methyl-2-oxo-2,3,4,5-tetrahydro-1H-benzo[b]azepin-3-yl)-N^2-phenethyloxalamide]
[1]
  inhibition at 1 µM: ≥ 75%
[2]
  Inhibition rate range of compounds (1 μM) on U937 cell necroptosis: A (A: ≥90%)

## CN1C(=O)C(NC(=O)C(=O)NCCc2ccccc2)CCc2ccc(C#CC3CCNCC3)cc21 (centres unmarked) [Example 66, N^1-(1-methyl-2-oxo-8-(piperidin-4-ylethynyl)-2,3,4,5-tetrahydro-1H-benzo[b]azepin-3-yl)-N^2-phenethyloxalamide]
[1]
  inhibition at 1 µM: 50 to 74%
[2]
  Inhibition rate range of compounds (1 μM) on U937 cell necroptosis: A (A: ≥90%)

## CN1C(=O)[C@@H](NC(=O)C(=O)NCCc2ccccc2)COc2ccc(C#CC3CCN(CC#N)CC3)cc21 [Example 74, (S)—N^1-(7-((1-(cyanomethyl)piperidin-4-yl)ethynyl)-5-methyl-4-oxo-2,3,4,5-tetrahydrobenzo[b][1, 4]oxazepin-3-yl)-N^2-phenethyloxalamide]
[1]
  inhibition at 1 µM: 50 to 74%
[2]
  Inhibition rate range of compounds (1 μM) on U937 cell necroptosis: A (A: ≥90%)

## CN1C(=O)[C@@H](NC(=O)C(=O)NCCc2ccccc2)COc2ccc(C#CC3COC3)cc21 [Example 76, (S)—N^1-(5-methyl-7-(oxetan-3-ylethynyl)-4-oxo-2,3,4,5-tetrahydrobenzo[b][1,4]oxazepin-3-yl)-N^2-phenethyloxalamide]
[1]
  inhibition at 1 µM: 50 to 74%
[2]
  Inhibition rate range of compounds (1 μM) on U937 cell necroptosis: A (A: ≥90%)

## CN1C(=O)[C@H](NC(=O)C(=O)NCCc2ccccc2)COc2ccc(C#CC3(O)COC3)cc21 [Example 77, (R)—N^1-(7-((3-hydroxyoxetan-3-yl)ethynyl)-5-methyl-4-oxo-2,3,4,5-tetrahydrobenzo[b][1,4]oxazepin-3-yl)-N^2-phenethyloxalamide]
[1]
  inhibition at 1 µM: 50 to 74%
[2]
  Inhibition rate range of compounds (1 μM) on U937 cell necroptosis: A (A: ≥90%)

## COC1(C#Cc2ccc3c(c2)N(C)C(=O)[C@@H](NC(=O)C(=O)NCCc2ccccc2)CO3)COC1 [Example 78, (S)—N^1-(7-((3-methoxyoxetan-3-yl)ethynyl)-5-methyl-4-oxo-2,3,4,5-tetrahydrobenzo[b][1,4]oxazepin-3-yl)-N^2-phenethyloxalamide]
[1]
  inhibition at 1 µM: 50 to 74%
[2]
  Inhibition rate range of compounds (1 μM) on U937 cell necroptosis: A (A: ≥90%)

## CN1C(=O)[C@@H](NC(=O)C(=O)NCCc2ccccc2)COc2ccc(C#CCC3(O)COC3)cc21 [Example 79, (S)—N^1-(7-(3-(3-hydroxyoxetan-3-yl)prop-1-yn-1-yl)-5-methyl-4-oxo-2,3,4,5-tetrahydrobenzo[b][1,4]oxazepin-3-yl)-N^2-phenethyloxalamide]
[1]
  inhibition at 1 µM: 50 to 74%
[2]
  Inhibition rate range of compounds (1 μM) on U937 cell necroptosis: A (A: ≥90%)

## CN1C(=O)[C@@H](NC(=O)C(=O)NCCc2ccccc2)COc2ccc(C#CC3(O)CCOC3)cc21 (stereo partly drawn) [Example 80, N^1-((3S)-7-((3-hydroxytetrahydrofuran-3-yl)ethynyl)-5-methyl-4-oxo-2,3,4,5-tetrahydrobenzo[b][1,4]oxazepin-3-yl)-N^2-phenethyloxalamide]
[1]
  inhibition at 1 µM: ≥ 75%
[2]
  Inhibition rate range of compounds (1 μM) on U937 cell necroptosis: A (A: ≥90%)
